Measured values reported in US20190136254A1, “ALS Inhibitor Herbicide Tolerant Mutant Plants” (BASF SE, priority 2013, published 2019).

Experiments:
AHAS protein WT = AHAS protein WT (Arabidopsis thaliana, UniProt P17597); test: biochemical; settings: for pI50 WT: AHAS WT
Description: (§1) Bacteria are grown at 37° C. in LB-medium containing 100 mg/l carbenicillin and 25 mg/l canamycin, induced with 1 mM isopropyl-β-D-thiogalactopyranoside at an OD600 of 0.6, cultivated for 16 hours at 18° C. and harvested by, e.g., centrifugation. Bacterial pellets are resuspended in 100 mM sodium phosphate buffer pH 7.0 containing 0.1 mM thiamine-pyrophosphate, 1 mM MgCl2, and 1 μM FAD at a concentration of 1 gram wet weight per 25 ml of buffer and disrupted by, e.g., sonification. The crude protein extract obtained after centrifugation is used for ALS activity measurements.
(§2) ALS protein can be extracted from leaves or tissue cultures, such as B. napus or B. juncea leaves, or B. napus or B. juncea tissue cultures as described by Ray (Plant Physiol, 1984, 75:827-831). An ALS assays can be carried out in 96-well microtiter plates using a modification of the procedure described by Ray (1984): The reaction mixture contains 20 mM potassium phosphate buffer pH 7.0, 20 mM sodium pyruvate, 0.45 mM thiamine-pyrophosphate, 0.45 mM MgCl2, 9 μM FAD. ALS enzyme and various concentrations of ALS inhibitors can be mixed in a final volume of 90 μl. Assays can be initiated by adding enzyme and the assays can be terminated after 75 min incubation at 30° C. by the addition of 40 μl 0.5 M H2SO4.

[1] = biological target: AHAS protein comprising the P197S mutation (Arabidopsis thaliana, UniProt P17597, P197S); test: biochemical; settings: for Resistance Factor P197S: AHAS P197S relative to WT; for pI50 P197S: AHAS P197S
AHAS protein comprising the P197S mutation, sequence (P17597 56-670 P197S): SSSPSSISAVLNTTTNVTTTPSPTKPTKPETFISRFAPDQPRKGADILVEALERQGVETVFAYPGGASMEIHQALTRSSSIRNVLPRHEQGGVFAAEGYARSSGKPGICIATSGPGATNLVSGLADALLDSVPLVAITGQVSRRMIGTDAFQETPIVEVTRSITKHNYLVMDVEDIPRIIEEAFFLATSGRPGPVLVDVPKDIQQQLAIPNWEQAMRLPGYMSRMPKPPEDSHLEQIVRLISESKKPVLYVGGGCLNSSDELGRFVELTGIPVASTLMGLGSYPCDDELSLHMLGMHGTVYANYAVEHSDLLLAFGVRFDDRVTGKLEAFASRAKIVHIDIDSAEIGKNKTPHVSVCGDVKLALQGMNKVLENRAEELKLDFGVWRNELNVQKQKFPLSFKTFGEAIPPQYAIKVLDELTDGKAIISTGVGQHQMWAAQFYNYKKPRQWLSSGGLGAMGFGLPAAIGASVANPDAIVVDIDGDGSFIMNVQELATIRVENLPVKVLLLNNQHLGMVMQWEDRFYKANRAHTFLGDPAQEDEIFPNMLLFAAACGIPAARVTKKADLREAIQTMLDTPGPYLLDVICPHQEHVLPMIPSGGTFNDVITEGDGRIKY
Description: as §1, §2

[2] = biological target: AHAS protein comprising the W574L mutation (Arabidopsis thaliana, UniProt P17597, W574L); test: biochemical; settings: for Resistance Factor W574L: AHAS W574L relative to WT; for pI50 W574L: AHAS W574L
AHAS protein comprising the W574L mutation, sequence (P17597 56-670 W574L): as the sequence (P17597 56-670 P197S) above, with S142P, W519L counted along it
Description: as §1, §2

[3] = biological target: AHAS protein comprising both the P197S and W574L mutation in one ALS protein (Arabidopsis thaliana, UniProt P17597, P197S/W574L); type: biochemical; settings: both mutations in one ALS protein; for Resistance Factor P197S-W574L (in one protein): relative to WT
AHAS protein comprising both the P197S and W574L mutation in one ALS protein, sequence (P17597 56-670 P197S/W574L): as the sequence (P17597 56-670 P197S) above, with W519L counted along it
Description: as §1, §2

[4] = biological target: mixture of two ALS proteins, one comprising the P197S and the other the W574L mutation (Arabidopsis thaliana, UniProt P17597, P197S/W574L); test: biochemical; settings: for Resistance Factor P197S & W574L (mixture): calculated mixture of two ALS proteins, relative to WT; for pI50 P197S & W574L (mixture): mixture of two ALS proteins, calculated as described in WO 2013/127766
mixture of two ALS proteins, one comprising the P197S and the other the W574L mutation, sequence (P17597 56-670 P197S/W574L): as the sequence (P17597 56-670 P197S) above, with W519L counted along it

[5] = test system: wild-type (WT) oilseed rape; test: Field test of visible phytotoxicity upon herbicide spraying, wild-type; type: in vivo, Brassica napus; settings: g ai/ha: imazamox 40, bispyribac-sodium 50, propoxycarbazone-sodium 70, mesosulfuron-methyl 60, pyroxsulam 12.5 + cloquintocet-mexyl 37.5, each + rapeseed oil methylated 366.5, 0%=no phytotoxic effects, 100%=all plants killed
Description: (§3) Seeds of spring oilseed rape homozygous for HETO132 and HETO134, and seeds of spring oilseed rape homozygous for HETO133 and HETO 134 were sown in a field according to typical practical agricultural methods. Several ALS inhibitor herbicides were applied to the oilseed rape plants by using specific spray equipment for small plot applications. […] The use of all herbicides in the test lead to a clearly better tolerance of the spring oilseed rape lines homozygous for HETO132 and HETO134 as compared to a standard variety not comprising ALS alleles according to the invention.

[6] = test system: oilseed rape homozygous for HETO133 and HETO134; test: Field test of visible phytotoxicity upon herbicide spraying, HETO133-HETO134; type: in vivo, Brassica napus; settings: g ai/ha: imazamox 40, bispyribac-sodium 50, propoxycarbazone-sodium 70, mesosulfuron-methyl 60, pyroxsulam 12.5 + cloquintocet-mexyl 37.5, each + rapeseed oil methylated 366.5, 0%=no phytotoxic effects, 100%=all plants killed
Description: as §3

[7] = test system: oilseed rape homozygous for HETO132 and HETO134; test: Field test of visible phytotoxicity upon herbicide spraying, HETO132-HETO134; type: in vivo, Brassica napus; settings: g ai/ha: imazamox 40, bispyribac-sodium 50, propoxycarbazone-sodium 70, mesosulfuron-methyl 60, pyroxsulam 12.5 + cloquintocet-mexyl 37.5, each + rapeseed oil methylated 366.5, 0%=no phytotoxic effects, 100%=all plants killed
Description: as §3

AHAS protein WT, sequence (P17597 56-670): as the sequence (P17597 56-670 P197S) above, with S142P counted along it

| SMILES | IC50 (AHAS protein WT) | IC50 [1] | Resistance Factor P197S [1] | IC50 [2] | Resistance Factor W574L [2] | pI50 P197S-W574L (in one protein) [3] | Resistance Factor P197S-W574L (in one protein) [3] | IC50 [4] | Resistance Factor P197S & W574L (mixture) [4] | further results |
| --- | --- | --- | --- | --- | --- | --- | --- | --- | --- | --- |
| COc1cc(OC)nc(NC(=O)NS(=O)(=O)N(C)S(C)(=O)=O)n1 [Amidosulfuron, amidosulfuron] | 200 nM | > 100000 nM | >488 | > 100000 nM | >488 | <4 | >488 | > 100000 nM | >501 | – |
| COc1cc(OC)nc(Oc2cccc(Oc3nc(OC)cc(OC)n3)c2C(=O)O)n1 [Bispyribac-sodium, bispyribac-sodium] | 15.8 nM | 79.4 nM | 4 | 7940 nM | 447 | <4 | >5623 | 794 nM | 40 | Percentage phytotoxicity 9 DAA wild-type [5]: 76.7%; Percentage phytotoxicity 16 DAA wild-type [5]: 98.3%; Percentage phytotoxicity 24 DAA wild-type [5]: 100%; Percentage phytotoxicity 9 DAA HETO133-HETO134 [6]: 56.7%; Percentage phytotoxicity 16 DAA HETO133-HETO134 [6]: 88.3%; Percentage phytotoxicity 24 DAA HETO133-HETO134 [6]: 92.7%; Percentage phytotoxicity 9 DAA HETO132-HETO134 [7]: 46.7%; Percentage phytotoxicity 16 DAA HETO132-HETO134 [7]: 71.7%; Percentage phytotoxicity 24 DAA HETO132-HETO134 [7]: 43.3% |
| COc1cc(OC)nc(NC(=O)NS(=O)(=O)c2ncccc2C(F)(F)F)n1 [Flazasulfuron, flazasulfuron] | 0.794 nM | 100 nM | 120 | 3160 nM | 3802 | <4 | >120226 | 631 nM | 794 | – |
| COc1ncc(F)c2nc(S(=O)(=O)Nc3c(F)cccc3F)nn12 [Florasulam, florasulam] | – | – | 28 | – | 1738 | <4 | >6918 | – | 200 | pI50 WT (AHAS protein WT): 7.8; pI50 P197S [1]: 6.4; pI50 W574L [2]: 4.6; pI50 P197S & W574L (mixture) [4]: 5.5 |
| COC(=O)c1ccc(C(F)(F)F)nc1S(=O)(=O)NC(=O)Nc1nc(OC)cc(OC)n1 [Flupyrsulfuron-methyl] | – | – | – | – | – | – | >47863 | – | – | – |
| COC(=O)c1ccc(I)cc1S(=O)(=O)[N-]C(=O)Nc1nc(C)nc(OC)n1.[Na+] [Iodosulfuron-methy-sodium, iodosulfuron-methyl-sodium] | – | – | 139 | – | 555 | – | >35030 | – | 316 | – |
| COC(=O)c1ccc(CNS(C)(=O)=O)cc1S(=O)(=O)NC(=O)Nc1nc(OC)cc(OC)n1 [Mesosulfuron-methyl, mesosulfuron-methyl] | – | – | 65 | – | 25770 | – | >64730 | – | 794 | – |
| COc1cc(OC)n2nc(S(=O)(=O)Nc3c(Cl)ccc(C)c3Cl)nc2n1 [Metosulam, metosulam] | 3.16 nM | 1580 nM | 457 | 20000 nM | 5754 | <4 | >28840 | 6310 nM | 2512 | – |
| COC(=O)c1ccccc1S(=O)(=O)NC(=O)Nc1nc(C)nc(OC)n1 [Metsulfuron-methyl, metsulfuron-methyl] | – | – | 38 | – | 755 | – | >7547 | – | – | – |
| COc1cc(OC)nc(NC(=O)NS(=O)(=O)c2ncccc2C(=O)N(C)C)n1 [Nicosulfuron, nicosulfuron] | 158 nM | 1000 nM | 6 | > 100000 nM | >607 | <4 | >607 | 31600 nM | 251 | – |
| CCCOc1nn(C(=O)[N-]S(=O)(=O)c2ccccc2C(=O)OC)c(=O)n1C.[Na+] [PROPOXYCARBAZONE-SODIUM, propoxycarbazone-sodium] | – | – | – | – | – | – | – | – | – | Percentage phytotoxicity 9 DAA wild-type [5]: 76.7%; Percentage phytotoxicity 16 DAA wild-type [5]: 97%; Percentage phytotoxicity 24 DAA wild-type [5]: 97.7%; Percentage phytotoxicity 9 DAA HETO133-HETO134 [6]: 53.3%; Percentage phytotoxicity 16 DAA HETO133-HETO134 [6]: 82.7%; Percentage phytotoxicity 24 DAA HETO133-HETO134 [6]: 76.7%; Percentage phytotoxicity 9 DAA HETO132-HETO134 [7]: 40%; Percentage phytotoxicity 16 DAA HETO132-HETO134 [7]: 36.7%; Percentage phytotoxicity 24 DAA HETO132-HETO134 [7]: 11.7% |
| CCCOc1nn(C(=O)[N-]S(=O)(=O)c2ccccc2C(=O)OC)c(=O)n1C.[Na+] [Propoxycarbazone] | – | – | 147 | – | 293 | – | >4641 | – | 200 | – |
| COc1cc(OC)n2nc(NS(=O)(=O)c3c(C(F)(F)F)ccnc3OC)nc2n1 [Pyroxsulam, pyroxsulam] | – | – | 261 | – | >41368 | <4 | >41368 | – | 6310 | pI50 WT (AHAS protein WT): 8.6; pI50 P197S [1]: 6.2; pI50 W574L [2]: <4; pI50 P197S & W574L (mixture) [4]: 4.8 |
| CCS(=O)(=O)c1cccnc1S(=O)(=O)NC(=O)Nc1nc(OC)cc(OC)n1 [Rimsulfuron, rimsulfuron] | 20 nM | 398 nM | 18 | 10000 nM | 447 | <4 | >4466 | 2000 nM | 63 | – |
| CCS(=O)(=O)c1nc2ccccn2c1S(=O)(=O)NC(=O)Nc1nc(OC)cc(OC)n1 [Sulfosulfuron, sulfosulfuron] | 20 nM | 39800 nM | 1848 | > 100000 nM | >4641 | <4 | >4641 | 251000 nM | 10000 | – |
| COC(=O)c1csc(C)c1S(=O)(=O)NC(=O)n1nc(OC)n(C)c1=O [Thiencarbazone-methyl, thiencarbazone-methyl] | – | – | 1173 | – | 1173 | – | >7399 | – | 1259 | – |
| COC(=O)c1sccc1S(=O)(=O)NC(=O)Nc1nc(C)nc(OC)n1 [Thifensulfuron-Methyl, thifensulfuron-methyl] | 39.8 nM | 7940 nM | 200 | 63100 nM | 1585 | <4 | >2511 | 25100 nM | 631 | – |
